Data: US20260028354A1, “TETRAHYDRONAPHTHALENE DERIVATIVES AS ESTROGEN RECEPTOR DEGRADERS” (REGENT OF THE UNIVERSITY OF MICHIGAN, priority 2022, published 2026)

Experiment: Western blot analysis for "B" compounds
Type: cell-based
Conditions: read-out: Traditional Western Degradation Potency (DC50)
Outline: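 Compound-treated cells lysed in RIPA buffer with protease inhibitors; equal protein (BCA) run on 10% SDS-PAGE, transferred to PVDF and probed with target antibodies. Band intensities quantified by densitometry and normalized to GAPDH.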

Compound	DC50 [nM]
O=C1CCC(N2C(=O)c3cc4c(cc3C2=O)CN(Cc2ccc(N3CC(Nc5ccc([C@@H]6c7ccc(O)cc7CC[C@@H]6c6ccccc6)cc5)C3)nc2)C4)C(=O)N1 (stereo partly drawn) [Compound B117, 2-(2,6-dioxopiperidin-3-yl)-6-((6-(3-((4-((1R,2S)-6-hydroxy-2-phenyl-1,2,3,4-tetrahydronaphthalen-1-yl)phenyl)amino)azetidin-1-yl)pyridin-3-yl)methyl)-6,7-dihydropyrrolo[3,4-f]isoindole-1,3(2H,5H)-dione]	> 100
3-(6-((1R,4r)-4-(3-((4-((1R,2S)-6-hydroxy-2-phenyl-1,2,3,4- tetrahydronaphthalen-1-yl)phenyl)amino)azetidin-1- yl)cyclohexane-1-carbonyl)-1-oxo-3,5,6,7- tetrahydropyrrolo[3,4-f]isoindol-2(1H)-yl)pipcridinc-2,6-dionc [Compound B109]	< 10
CN(C1CCC(CN2Cc3cc4c(cc3C2)C(=O)N(C2CCC(=O)NC2=O)C4=O)CC1)C1CCN(c2ccc([C@@H]3c4ccc(O)cc4CC[C@@H]3c3ccccc3)cc2)CC1 (stereo partly drawn) [Compound B75, 2-(2,6-dioxopiperidin-3-yl)-6-((4-((1-(4-((1R,2S)-6-hydroxy-2-phenyl-1,2,3,4-tetrahydronaphthalen-1-yl)phenyl)piperidin-4-yl)(methyl)amino)cyclohexyl)methyl)-6,7-dihydropyrrolo[3,4-f]isoindole-1,3(2H,5H)-dione]	> 100
O=C1CCC(N2Cc3cc4c(cc3C2=O)CN(C(=O)C2CCN(CC3CCN(c5ccc([C@@H]6c7ccc(O)cc7CC[C@@H]6c6ccccc6)cc5)CC3)CC2)C4)C(=O)N1 (stereo partly drawn) [Compound B199, 3-(6-(1-((1-(4-((1R,2S)-6-hydroxy-2-phenyl-1,2,3,4-tetrahydronaphthalen-1-yl)phenyl)piperidin-4-yl)methyl)piperidine-4-carbonyl)-1-oxo-3,5,6,7-tetrahydropyrrolo[3,4-f]isoindol-2(1H)-yl)piperidine-2,6-dione]	> 100
O=C1CCC(N2C(=O)c3cc4c(cc3C2=O)CN(C(=O)CN2CCC3(CC2)CCN(c2ccc([C@@H]5c6ccc(O)cc6CC[C@@H]5c5ccc(F)cc5)cc2)C3)C4)C(=O)N1 (mixture of isomers) [Compound B31, 2-(2,6-dioxopiperidin-3-yl)-6-(2-(2-(4-((1R,2S)-2-(4-fluorophenyl)-6-hydroxy-1,2,3,4-tetrahydronaphthalen-1-yl)phenyl)-2,8-diazaspiro[4.5]decan-8-yl)acetyl)-6,7-dihydropyrrolo[3,4-f]isoindole-1,3(2H,5H)-dione]	> 100
CN(CC1CN(c2ccc([C@@H]3c4ccc(O)cc4CC[C@@H]3c3ccccc3)cc2)C1)C1CCC(N2Cc3cc4c(cc3C2)C(=O)N(C2CCC(=O)NC2=O)C4=O)CC1 (stereo partly drawn) [Compound B95, 2-(2,6-dioxopiperidin-3-yl)-6-(4-(((1-(4-((1R,2S)-6-hydroxy-2-phenyl-1,2,3,4-tetrahydronaphthalen-1-yl)phenyl)azetidin-3-yl)methyl)(methyl)amino)cyclohexyl)-6,7-dihydropyrrolo[3,4-f]isoindole-1,3(2H,5H)-dione]	> 100
O=C1CCC(N2C(=O)c3cc4c(cc3C2=O)CCN(CC(=O)N2CC3(CCN(c5ccc([C@@H]6c7ccc(O)cc7CC[C@@H]6c6ccccc6)cc5)CC3)C2)CC4)C(=O)N1 (stereo partly drawn) [Compound B41, 2-(2,6-dioxopiperidin-3-yl)-7-(2-(7-(4-((1R,2S)-6-hydroxy-2-phenyl-1,2,3,4-tetrahydronaphthalen-1-yl)phenyl)-2,7-diazaspiro[3.5]nonan-2-yl)-2-oxoethyl)-6,7,8,9-tetrahydroazepino[4,5-f]isoindole-1,3(2H,5H)-dione]	> 100
3-(6-((1S,4s)-4-(3-((4-((1R,2S)-6-hydroxy-2-phenyl-1,2,3,4- tetrahydronaphthalcn-1-yl)phenyl)amino)azctidin-1- yl)cyclohexane-1-carbonyl)-1-oxo-3,5,6,7- tetrahydropyrrolo[3,4-f]isoindol-2(1H)-yl)piperidine-2,6-dione [Compound B110]	> 100
O=C1CCC(N2C(=O)c3cc4c(cc3C2=O)CN(CC2(F)CCN(C(=O)C3CCN(c5ccc([C@@H]6c7ccc(O)cc7CC[C@@H]6c6ccccc6)cc5)CC3)CC2)C4)C(=O)N1 (stereo partly drawn) [Compound B267, 2-(2,6-dioxopiperidin-3-yl)-6-((4-fluoro-1-(1-(4-((1R,2S)-6-hydroxy-2-phenyl-1,2,3,4-tetrahydronaphthalen-1-yl)phenyl)piperidine-4-carbonyl)piperidin-4-yl)methyl)-6,7-dihydropyrrolo[3,4-f]isoindole-1,3(2H,5H)-dione]	> 100
O=C1CCC(N2C(=O)c3cc4c(cc3C2=O)CN(C(=O)CN2CCC3(CC2)CCN(c2ccc([C@@H]5c6ccc(B(O)O)cc6CC[C@@H]5c5ccccc5)cc2)CC3)C4)C(=O)N1 (mixture of isomers) [Compound B51, ((5R,6S)-5-(4-(9-(2-(6-(2,6-dioxopiperidin-3-yl)-5,7-dioxo-3,5,6,7-tetrahydropyrrolo[3,4-f]isoindol-2(1H)-yl)-2-oxoethyl)-3,9-diazaspiro[5.5]undecan-3-yl)phenyl)-6-phenyl-5,6,7,8-tetrahydronaphthalen-2-yl)boronic acid]	> 100
O=C1CCC(N2C(=O)c3cc4c(cc3C2=O)CN(C(=O)[C@H]2CC[C@@H](N3CC(Nc5ccc([C@@H]6c7ccc(O)cc7CC[C@@H]6c6ccccc6)cc5)C3)CC2)C4)C(=O)N1 (stereo partly drawn) [Compound B129, 2-(2,6-dioxopiperidin-3-yl)-6-((1R,4s)-4-(3-((4-((1R,2S)-6-hydroxy-2-phenyl-1,2,3,4-tetrahydronaphthalen-1-yl)phenyl)amino)azetidin-1-yl)cyclohexane-1-carbonyl)-6,7-dihydropyrrolo[3,4-f]isoindole-1,3(2H,5H)-dione]	> 100
O=C1CCC(N2C(=O)c3cc4c(cc3C2=O)CN(CC(=O)N2CCC3(CC2)CCN(c2ccc([C@H]5c6ccc(O)cc6CC[C@H]5c5ccccc5)nc2)CC3)C4)C(=O)N1 (mixture of isomers) [Compound B86, 2-(2,6-dioxopiperidin-3-yl)-6-(2-(9-(6-((1R,2R)-6-hydroxy-2-phenyl-1,2,3,4-tetrahydronaphthalen-1-yl)pyridin-3-yl)-3,9-diazaspiro[5.5]undecan-3-yl)-2-oxoethyl)-6,7-dihydropyrrolo[3,4-f]isoindole-1,3(2H,5H)-dione]	> 100
O=C1CCC(N2C(=O)c3cc4c(cc3C2=O)CN(CC(=O)N2CCC3(C2)CN(c2ccc([C@@H]5c6ccc(O)cc6CC[C@@H]5c5ccccc5)cc2)C3)C4)C(=O)N1 (mixture of isomers) [Compound B187, 2-(2,6-dioxopiperidin-3-yl)-6-(2-(2-(4-((1R,2S)-6-hydroxy-2-phenyl-1,2,3,4-tetrahydronaphthalen-1-yl)phenyl)-2,6-diazaspiro[3.4]octan-6-yl)-2-oxoethyl)-6,7-dihydropyrrolo[3,4-f]isoindole-1,3(2H,5H)-dione]	10 to 100

Results, then the compound that gave them:

DC50 [nM]	Compound
< 10	O=C1CCC(N2Cc3cc4c(cc3C2=O)CN(C2CCN(CC3CCN(c5ccc([C@@H]6c7ccc(O)cc7CC[C@@H]6c6ccc(F)cc6)cc5)CC3)CC2)C4)C(=O)N1 (stereo partly drawn) [Compound B68, 3-(6-(1-((1-(4-((1R,2S)-2-(4-fluorophenyl)-6-hydroxy-1,2,3,4-tetrahydronaphthalen-1-yl)phenyl)piperidin-4-yl)methyl)piperidin-4-yl)-1-oxo-3,5,6,7-tetrahydropyrrolo[3,4-f]isoindol-2(1H)-yl)piperidine-2,6-dione]
10 to 100	O=C1CCC(N2C(=O)c3cc4c(cc3C2=O)CN(C2CCN(CC3CCN(c5ccc([C@@H]6c7ccc(O)cc7CC[C@@H]6c6ccc(F)cc6)cc5)CC3)CC2)C4)C(=O)N1 (stereo partly drawn) [Compound B66, 2-(2,6-dioxopiperidin-3-yl)-6-(1-((1-(4-((1R,2S)-2-(4-fluorophenyl)-6-hydroxy-1,2,3,4-tetrahydronaphthalen-1-yl)phenyl)piperidin-4-yl)methyl)piperidin-4-yl)-6,7-dihydropyrrolo[3,4-f]isoindole-1,3(2H,5H)-dione]
10 to 100	O=C1CCC(N2C(=O)c3cc4c(cc3C2=O)CN(C(=O)[C@H]2CC[C@H](CN3CC(Oc5ccc([C@@H]6c7ccc(O)cc7CC[C@@H]6c6ccccc6)cc5)C3)CC2)C4)C(=O)N1 (stereo partly drawn) [Compound B281, 2-(2,6-dioxopiperidin-3-yl)-6-((1R,4r)-4-((3-(4-((1R,2S)-6-hydroxy-2-phenyl-1,2,3,4-tetrahydronaphthalen-1-yl)phenoxy)azetidin-1-yl)methyl)cyclohexane-1-carbonyl)-6,7-dihydropyrrolo[3,4-f]isoindole-1,3(2H,5H)-dione]
10 to 100	O=C1CCC(N2C(=O)c3cc4c(cc3C2=O)CN(C(=O)CN2CC3(CCN(c5ccc([C@@H]6c7ccc(O)cc7CC[C@@H]6c6ccc(F)cc6)cc5)CC3)C2)C4)C(=O)N1 (mixture of isomers) [Compound B19, 2-(2,6-dioxopiperidin-3-yl)-6-(2-(7-(4-((1R,2S)-2-(4-fluorophenyl)-6-hydroxy-1,2,3,4-tetrahydronaphthalen-1-yl)phenyl)-2,7-diazaspiro[3.5]nonan-2-yl)acetyl)-6,7-dihydropyrrolo[3,4-f]isoindole-1,3(2H,5H)-dione]
10 to 100	O=C1CCC(N2C(=O)c3cc4c(cc3C2=O)CN(CC(=O)N2CCC3(CC2)CCN(c2ccc([C@@H]5c6ccc(O)cc6CC[C@@H]5c5ccc(F)cc5)cc2)C3)C4)C(=O)N1 (stereo partly drawn) [Compound B55, 2-(2,6-dioxopiperidin-3-yl)-6-(2-(2-(4-((1R,2S)-2-(4-fluorophenyl)-6-hydroxy-1,2,3,4-tetrahydronaphthalen-1-yl)phenyl)-2,8-diazaspiro[4.5]decan-8-yl)-2-oxoethyl)-6,7-dihydropyrrolo[3,4-f]isoindole-1,3(2H,5H)-dione]
10 to 100	O=C1CCC(N2C(=O)c3cc4c(cc3C2=O)CN(CC(=O)N2CCC3(CC2)CCN(c2ccc([C@@H]5c6ccc(O)cc6CC[C@@H]5c5ccccc5)cc2)CC3)CC4)C(=O)N1 (stereo partly drawn) [Compound B195, 2-(2,6-dioxopiperidin-3-yl)-6-(2-(9-(4-((1R,2S)-6-hydroxy-2-phenyl-1,2,3,4-tetrahydronaphthalen-1-yl)phenyl)-3,9-diazaspiro[5.5]undecan-3-yl)-2-oxoethyl)-5,6,7,8-tetrahydro-1H-pyrrolo[3,4-g]isoquinoline-1,3(2H)-dione]
